Experiment: Vapor pressure by Donovan method
Type: physicochemical
Conditions: at 25° C. by Donovan method
Description: Donovan method is a method reported by a person in New method for estimating vapor pressure by the use of gas chromatography: Journal of Chromatography A. 749, pp. 123-129 (1996).
Test pest controllers (a) and (b) were made by the pest controller 1 shown in FIG. 2 with chemical substance 22 containing compound (A) (2,3,5,6-tetrafluoro-4-methoxymethylbenzyl 3-(1-propenyl)-2,2-dimethylcyclopropanecarboxylate, the vapor pressure at 25° C. by Donovan method: 1.4×10^−5 mmHg) as an active ingredient.

In the case of `CC=CC1C(C(=O)OCc2c(F)c(F)c(COC)c(F)c2F)C1(C)C` (stereo not shown) [compound (A), 2,3,5,6-tetrafluoro-4-methoxymethylbenzyl 3-(1-propenyl)-2,2-dimethylcyclopropanecarboxylate], the vapor pressure is reported as 1.4×10^−5 mmHg.
